According to patent publication US9796674B2, “Benzyl urea derivatives for activating TGF-beta signaling” (THE BOARD OF TRUSTEES OF THE LELAND STANFORD JUNIOR …, priority 2013, dated 2017):
Like-named read-outs stand apart in the source and are kept apart here.

Assay: Single-dose pharmacokinetics in female FVB mice
Type: in vivo, mouse
Conditions: for Kp at 4 h: read-out: Brain to Plasma concentration ratio at 4 h
Protocol: Pharmacokinetics of SRI-011381 after single intravenous, intraperitoneal, or oral administration in female FVB mice: The objective of this study was to determine the single-dose pharmacokinetics of SRI-011381 in plasma and brain. Female FVB/NJ mice were administered the test article by intravenous (iv, 10 mg/kg), intraperitoneal (ip, 30 mg/kg), and oral gavage (po, 50 mg/kg) dose routes. The compound was formulated in 10% DMSO:15% Solutol:75% sterile water. Plasma and brain were collected at various time points up to 24 h and analyzed by LC/MS for determination of SRI-011381 levels. FIGS. 7A and 7B summarize SRI-011381 levels in plasma and brain, and Tables 4 and 5 list the results of the pharmacokinetic analysis.

[1] = female, FVB/NJ, mouse, brain, ip, 30 mg/kg
[2] = female, FVB/NJ, mouse, brain, iv, 10 mg/kg
[3] = female, FVB/NJ, mouse, brain, po, 50 mg/kg
[4] = female, FVB/NJ, mouse, plasma, ip, 30 mg/kg
[5] = female, FVB/NJ, mouse, plasma, iv, 10 mg/kg
[6] = female, FVB/NJ, mouse, plasma, po, 50 mg/kg

O=C(NC1CCCCC1)N(Cc1ccccc1)CC1CCNCC1 [SRI-011381, 1-Benzyl-3-cyclohexyl-1-(piperidin-4-ylmethyl)urea]
Kp (female, FVB/NJ, mouse, brain, intraperitoneal, time points after about 0.5 h (iv) and about 1.5 h (po and ip), read-out: brain-to-plasma concentration ratio): > 0.5 | Cmax [1]: 348 ± 33 ng/mL | Tmax [1]: 15 min | Kp at 4 h [1]: 1.65 | Cmax [2]: 231 ± 106 ng/mL | Tmax [2]: 15 min | Kp at 4 h [2]: 12.5 | Cmax [3]: 157 ± 16 ng/mL | Tmax [3]: 60 min | Kp at 4 h (female, FVB/NJ, mouse, brain, po, 50 mg/kg, p.o.): 0.89 | Kp (female, FVB/NJ, mouse, brain/plasma, ip, 30 mg/kg, values at the brain T, read-out: Brain-to-plasma ratio): 0.07 | Kp (female, FVB/NJ, mouse, brain/plasma, iv, 10 mg/kg, values at the brain T, read-out: Brain-to-plasma ratio): 0.28 | Kp (female, FVB/NJ, mouse, brain/plasma, po, 50 mg/kg, values at the brain T, read-out: Brain-to-plasma ratio): 0.19 | clearance (female, FVB/NJ, mouse, plasma, intraperitoneal, extravascular estimates (ip and po) based on F, read-out: Cl (converted)): ~150 mL/min/kg | Vd (female, FVB/NJ, mouse, plasma, intraperitoneal, extravascular estimates (ip and po) based on F, read-out: apparent volume of distribution V): 8 to 13 L/kg | half-life (female, FVB/NJ, mouse, plasma, intravenous, intraperitoneal, oral, read-out: elimination half-life): < 60 min | AUC(0-inf) [4]: 4160 ng·h/mL | AUC(0-t) [4]: 4110 ± 214 ng·h/mL | Cmax [4]: 6810 ± 720 ng/mL | Tmax [4]: 4.98 min | half-life (female, FVB/NJ, mouse, plasma, ip, 30 mg/kg, read-out: t1/2 (converted)): 35.4 min | AUC(0-inf) [5]: 1080 ng·h/mL | AUC(0-t) [5]: 1070 ± 129 ng·h/mL | Cmax [5]: 1170 ± 415 ng/mL | Tmax [5]: 4.98 min | clearance (female, FVB/NJ, mouse, plasma, iv, 10 mg/kg, read-out: CI (clearance) (converted)): 154 mL/min/kg | half-life (female, FVB/NJ, mouse, plasma, iv, 10 mg/kg, read-out: t1/2 (converted)): 34.2 min | AUC(0-inf) [6]: 2600 ng·h/mL | AUC(0-t) [6]: 2600 ± 374 ng·h/mL | Cmax [6]: 2950 ± 1240 ng/mL | Tmax [6]: 10 min | bioavailability (female, FVB/NJ, mouse, plasma, po, 50 mg/kg, plasma, po, 50 mg/kg, read-out: F (oral bioavailability)): ~50% | half-life (female, FVB/NJ, mouse, plasma, po, 50 mg/kg, read-out: t1/2 (converted)): 58.2 min | AUC(0-t) (female, FVB/NJ, mouse, brain, ip, 30 mg/kg, AUC from 0.25 to 4 h): 740 ± 32 ng·h/mL | AUC(0-t) (female, FVB/NJ, mouse, brain, iv, 10 mg/kg, AUC from 0.25 to 4 h): 738 ± 89 ng·h/mL | AUC(0-t) (female, FVB/NJ, mouse, brain, po, 50 mg/kg, AUC from 0.5 to 4 h): 416 ± 33 ng·h/mL | CI (clearance) (plasma, ip, 30 mg/kg): 154.3 mL/min/kg | F (plasma, ip, 30 mg/kg): 128% | V (plasma, ip, 30 mg/kg): 7.875 L/kg | F (plasma, iv, 10 mg/kg): 100% | V (plasma, iv, 10 mg/kg): 7.669 L/kg | V (plasma, po, 50 mg/kg): 13.012 L/kg
